Results on 5 molecules are retold here after patent US6043217A, “Amide derivative of amythiamicin” (Zaidan Hojin Biseibutsu Kagaku Kenyu Kai, priority 1996, dated 2000).

For data set [1], the system named is Staphylococcus aureus MS 15027. In words: MIC, standard serial dilution method. In kind it is cell-based. The note with it: Muller-Hinton agar medium, 37° C.
The test system of data set [2] is Staphylococcus epidermidis ATCC 14990. The data set is described as follows: MIC, standard serial dilution method. In kind it is cell-based. The note with it: Muller-Hinton agar medium, 37° C.
For data set [3], the system named is Enterobacterium faecalis W-73. The data set is described as follows: MIC, standard serial dilution method. In kind it is cell-based. The note with it: Muller-Hinton agar medium, 37° C.
In data set [4] the test system is Staphylococcus aureus MS 15026. The data set is described as follows: MIC, standard serial dilution method. Format: cell-based. The note with it: Muller-Hinton agar medium, 37° C.
Data set [5] concerns Klebsiella pneumonia PCI 602. In words: MIC, standard serial dilution method. In kind it is cell-based. The note with it: Klebsiella pneumonia PCI 602 (Table 3); Muller-Hinton agar medium, 37° C.
The subject of data set [6] is Streptococcus pneumoniae Type 1. In words: MIC, standard serial dilution method. In kind it is cell-based. The note with it: Muller-Hinton agar medium, 37° C.
Data set [7] has as its system Escherichia coli NIHJ JC-2. The data set is described as follows: MIC, standard serial dilution method. Format: cell-based. The note with it: Muller-Hinton agar medium, 37° C.
Data set [8] concerns Staphylococcus aureus M 126. The data set is described as follows: MIC, standard serial dilution method. In kind it is cell-based. The note with it: Muller-Hinton agar medium, 37° C.
The subject of data set [9] is Haemophilus influenzae 9334. In words: MIC, standard serial dilution method. The note with it: Muller-Hinton agar medium, 37° C. In kind it is cell-based.
The subject of data set [10] is Branhamella catarrhalis W-0500. The data set is described as follows: MIC, standard serial dilution method. Format: cell-based. The note with it: Muller-Hinton agar medium, 37° C.
The test system of data set [11] is Micrococcus luteus ATCC 9341. The data set is described as follows: MIC, standard serial dilution method. Format: cell-based. The note with it: Muller-Hinton agar medium, 37° C.
The test system of data set [12] is Staphylococcus aureus MS 15009/pMS 99. In words: MIC, standard serial dilution method. The note with it: Muller-Hinton agar medium, 37° C. In kind it is cell-based.
Data set [13] deals with Staphylococcus aureus MS 15009/pMS 98. In words: MIC, standard serial dilution method. In kind it is cell-based. The note with it: Muller-Hinton agar medium, 37° C.
Data set [14] relates to Staphylococcus aureus 209P JC-1. In words: MIC, standard serial dilution method. In kind it is cell-based. The note with it: Muller-Hinton agar medium, 37° C.
In data set [15] the test system is Staphylococcus aureus M 133. The data set is described as follows: MIC, standard serial dilution method. In kind it is cell-based. The note with it: Muller-Hinton agar medium, 37° C.
The test system of data set [16] is Branhamella catarrhalis W-0506. The data set is described as follows: MIC, standard serial dilution method. In kind it is cell-based. The note with it: Muller-Hinton agar medium, 37° C.
In data set [17] the test system is Streptococcus pneumoniae IP 692. In words: MIC, standard serial dilution method. The note with it: Muller-Hinton agar medium, 37° C. Format: cell-based.
Data set [18] deals with Streptococcus pyogenes Cook. The data set is described as follows: MIC, standard serial dilution method. The note with it: Muller-Hinton agar medium, 37° C. In kind it is cell-based.
The test system of data set [19] is Haemophilus influenzae Type b. The data set is described as follows: MIC, standard serial dilution method. The note with it: Muller-Hinton agar medium, 37° C. Format: cell-based.
The conditions of data set [20]: background statement on known amythiamicins; cited from earlier work.

As to `CNC(=O)CC1NC(=O)c2csc(n2)-c2ccc(-c3nc(C(=O)N[C@H](CO)CCCNC(=N)N)cs3)nc2-c2csc(n2)-c2csc(n2)C(C(C)C)NC(=O)CNC(=O)c2csc(n2)C(C(C)C)NC(=O)c2nc1sc2C` (some centres unmarked) [Compound No. 11], the “Minimum growth inhibitory concentrations (MIC.)” value in data set [1], in data set [2], in data set [3], in [4], in [5] and in [6] was above 100 µg/mL in each case. In addition, the “Minimum growth inhibitory concentrations (MIC.)” value was above 100 µg/mL in data set [7]; above 100 µg/mL in data set [8]; above 100 µg/mL in data set [9]; above 100 µg/mL in data set [10]; 100 µg/mL in data set [11]; above 100 µg/mL in data set [12]. Moreover, the “Minimum growth inhibitory concentrations (MIC.)” value was above 100 µg/mL in data set [13]; 6.25 µg/mL in data set [14]; above 100 µg/mL in data set [15]; above 100 µg/mL in [16]; above 100 µg/mL in data set [17]; above 100 µg/mL in data set [18]. Further, in data set [19], the “Minimum growth inhibitory concentrations (MIC.)” value is above 100 µg/mL.

For `CCCCNC(=O)c1csc(-c2ccc3c(n2)-c2csc(n2)-c2csc(n2)C(C(C)C)NC(=O)CNC(=O)c2csc(n2)C(C(C)C)NC(=O)c2nc(sc2C)C(CC(=O)NC)NC(=O)c2csc-3n2)n1` (centres unmarked) [Compound No. 8], the “Minimum growth inhibitory concentrations (MIC.)” value in data set [1], in data set [2], in data set [3], in [4], in data set [5] and in data set [6] was above 100 µg/mL throughout. Also, the “Minimum growth inhibitory concentrations (MIC.)” value in data set [7] is above 100 µg/mL; in data set [8] it was above 100 µg/mL; in [9] it was above 100 µg/mL; in [10] it was above 100 µg/mL; in data set [11] it was 1.56 µg/mL; in data set [12], above 100 µg/mL. Besides, the “Minimum growth inhibitory concentrations (MIC.)” value in data set [13], in [14], in data set [15], in data set [16], in [17] and in data set [18] was above 100 µg/mL throughout. Also, the “Minimum growth inhibitory concentrations (MIC.)” value in data set [19] was above 100 µg/mL.

As to `CNC(=O)CC1NC(=O)c2csc(n2)-c2ccc(-c3nc(C(=O)NCCCO)cs3)nc2-c2csc(n2)-c2csc(n2)C(C(C)C)NC(=O)CNC(=O)c2csc(n2)C(C(C)C)NC(=O)c2nc1sc2C` (centres unmarked) [Compound No. 9], the “Minimum growth inhibitory concentrations (MIC.)” value in [1] is 0.39 µg/mL; in data set [2], 0.78 µg/mL; in data set [3] it was 0.39 µg/mL; in data set [4] it was 0.39 µg/mL; in data set [5], above 100 µg/mL; in data set [6], above 100 µg/mL. Also, the “Minimum growth inhibitory concentrations (MIC.)” value was above 100 µg/mL in data set [7]; 0.39 µg/mL in data set [8]; above 100 µg/mL in data set [9]; above 100 µg/mL in [10]; 0.20 µg/mL in data set [11]; 0.39 µg/mL in [12]. The “Minimum growth inhibitory concentrations (MIC.)” value in data set [13] is 0.39 µg/mL; in [14], 0.39 µg/mL; in data set [15] it was 0.39 µg/mL; in [16], above 100 µg/mL; in [17], above 100 µg/mL; in data set [18], above 100 µg/mL. In addition, the “Minimum growth inhibitory concentrations (MIC.)” value in [19] was above 100 µg/mL.

Consider `CNC(=O)CC1NC(=O)c2csc(n2)-c2ccc(-c3nc(C(=O)OC)cs3)nc2-c2csc(n2)-c2csc(n2)C(C(C)C)NC(=O)CNC(=O)c2csc(n2)C(C(C)C)NC(=O)c2nc1sc2C` (centres unmarked) [Amythiamicin D], for which the solubility in water entry in data set [20] is on record as “hardly soluble in water”.

For the molecule `CNC(=O)CC1NC(=O)c2csc(n2)-c2ccc(-c3nc(C(=O)N[C@@H](CCCNC(=N)N)C(=O)O)cs3)nc2-c2csc(n2)-c2csc(n2)C(C(C)C)NC(=O)CNC(=O)c2csc(n2)C(C(C)C)NC(=O)c2nc1sc2C` (some centres unmarked) [Compound No. 10], the “Minimum growth inhibitory concentrations (MIC.)” value in [1], in data set [2], in [3], in data set [4], in data set [5] and in data set [6] was above 100 µg/mL in each case. The “Minimum growth inhibitory concentrations (MIC.)” value in data set [7], in data set [8], in data set [9], in [10], in data set [11] and in [12] was above 100 µg/mL each time. Besides, the “Minimum growth inhibitory concentrations (MIC.)” value in [13], in [14], in data set [15], in data set [16], in [17] and in [18] was above 100 µg/mL throughout. The “Minimum growth inhibitory concentrations (MIC.)” value in data set [19] is above 100 µg/mL.
